# Measurements: the kinase profiling compilation of Christmann-Franck et al. (2016)
# Assays:
# Experiment in all cases: radiometric filter-binding kinase assay, Kinase HotSpot
# Conditions in all cases: compound 0.5 µM; ATP 10 µM
# [1] = biological target: AKT2 (human) (UniProt P31751)
# [2] = biological target: BRSK2 (human) (UniProt Q8IWQ3)
# [3] = biological target: CDK1 CCNA2 (human) (UniProt P06493+P20248)
# [4] = biological target: CHUK (human) (UniProt O15111)
# [5] = biological target: CLK4 (human) (UniProt Q9HAZ1)
# [6] = biological target: CSNK1G3 (human) (UniProt Q9Y6M4)
# [7] = biological target: CSNK2A2 (human) (UniProt P19784)
# [8] = biological target: DAPK1 (human) (UniProt P53355)
# [9] = biological target: DDR2 (human) (UniProt Q16832)
# [10] = biological target: DMPK (human) (UniProt Q09013)
# [11] = biological target: DYRK3 (human) (UniProt O43781)
# [12] = biological target: EPHA1 (human) (UniProt P21709)
# [13] = biological target: EPHA3 (human) (UniProt P29320)
# [14] = biological target: EPHB4 (human) (UniProt P54760)
# [15] = biological target: GSK3B (human) (UniProt P49841)
# [16] = biological target: HIPK2 (human) (UniProt Q9H2X6)
# [17] = biological target: IKBKB (human) (UniProt O14920)
# [18] = biological target: IKBKE (human) (UniProt Q14164)
# [19] = biological target: KIT (human) (UniProt P10721)
# [20] = biological target: MAP3K10 (human) (UniProt Q02779)
# [21] = biological target: MAPK9 (human) (UniProt P45984)
# [22] = biological target: MAPKAPK2 (human) (UniProt P49137)
# [23] = biological target: MARK4 (human) (UniProt Q96L34)
# [24] = biological target: MERTK (human) (UniProt Q12866)
# [25] = biological target: MET (human) (UniProt P08581)
# [26] = biological target: MST1R (human) (UniProt Q04912)
# [27] = biological target: NEK11 (human) (UniProt Q8NG66)
# [28] = biological target: NEK4 (human) (UniProt P51957)
# [29] = biological target: NTRK1 (human) (UniProt P04629)
# [30] = biological target: PAK1 (human) (UniProt Q13153)
# [31] = biological target: PAK2 (human) (UniProt Q13177)
# [32] = biological target: PAK6 (human) (UniProt Q9NQU5)
# [33] = biological target: RAF1 (human) (UniProt P04049)
# [34] = biological target: ROCK1 (human) (UniProt Q13464)
# [35] = biological target: SGK2 (human) (UniProt Q9HBY8)
# [36] = biological target: SYK (human) (UniProt P43405)
# [37] = biological target: TEK (human) (UniProt Q02763)
# [38] = biological target: TGFBR1 (human) (UniProt P36897)
# [39] = biological target: TYK2 JH1 catalytic (human) (UniProt P29597)
# [40] = biological target: WNK3 (human) (UniProt Q9BYP7)
# [41] = biological target: ZAP70 (human) (UniProt P43403)
# MERTK (human), sequence (Q12866 whole entry, looked up): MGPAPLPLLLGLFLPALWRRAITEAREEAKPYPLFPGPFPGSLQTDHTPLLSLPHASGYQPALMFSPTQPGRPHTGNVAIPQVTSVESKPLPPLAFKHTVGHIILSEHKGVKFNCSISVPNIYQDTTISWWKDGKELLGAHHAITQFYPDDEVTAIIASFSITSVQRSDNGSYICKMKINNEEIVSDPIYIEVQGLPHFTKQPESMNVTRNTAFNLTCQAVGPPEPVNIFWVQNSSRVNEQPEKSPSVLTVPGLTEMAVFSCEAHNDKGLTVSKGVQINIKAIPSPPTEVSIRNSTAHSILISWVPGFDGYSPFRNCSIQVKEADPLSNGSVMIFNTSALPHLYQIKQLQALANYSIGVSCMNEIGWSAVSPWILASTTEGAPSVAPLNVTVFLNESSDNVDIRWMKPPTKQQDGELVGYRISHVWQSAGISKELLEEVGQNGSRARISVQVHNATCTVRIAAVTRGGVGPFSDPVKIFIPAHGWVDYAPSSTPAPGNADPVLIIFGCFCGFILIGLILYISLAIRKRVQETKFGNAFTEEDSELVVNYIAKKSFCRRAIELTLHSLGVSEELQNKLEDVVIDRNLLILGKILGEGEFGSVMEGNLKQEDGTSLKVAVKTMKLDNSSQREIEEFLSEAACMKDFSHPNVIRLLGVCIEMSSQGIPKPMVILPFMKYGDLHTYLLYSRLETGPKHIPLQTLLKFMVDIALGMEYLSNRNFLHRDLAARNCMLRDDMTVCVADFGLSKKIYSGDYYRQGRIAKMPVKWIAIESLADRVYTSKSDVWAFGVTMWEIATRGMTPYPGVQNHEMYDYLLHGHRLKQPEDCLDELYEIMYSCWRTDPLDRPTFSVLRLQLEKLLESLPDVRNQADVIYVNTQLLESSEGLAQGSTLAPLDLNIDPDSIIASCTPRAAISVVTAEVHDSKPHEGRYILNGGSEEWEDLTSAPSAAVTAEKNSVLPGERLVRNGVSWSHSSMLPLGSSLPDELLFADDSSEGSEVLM
# MAPK9 (human), sequence (P45984 whole entry, looked up): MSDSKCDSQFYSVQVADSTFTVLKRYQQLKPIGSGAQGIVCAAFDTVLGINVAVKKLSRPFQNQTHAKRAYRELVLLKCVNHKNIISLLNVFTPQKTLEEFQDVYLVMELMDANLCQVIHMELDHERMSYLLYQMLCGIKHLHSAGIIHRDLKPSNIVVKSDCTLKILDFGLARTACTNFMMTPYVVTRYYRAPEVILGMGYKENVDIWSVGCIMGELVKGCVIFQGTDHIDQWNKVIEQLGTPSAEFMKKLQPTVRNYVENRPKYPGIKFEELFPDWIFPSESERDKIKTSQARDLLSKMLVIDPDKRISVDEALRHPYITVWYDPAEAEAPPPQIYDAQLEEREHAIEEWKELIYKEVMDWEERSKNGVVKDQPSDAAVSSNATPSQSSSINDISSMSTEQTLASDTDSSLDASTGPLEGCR
# CDK1 CCNA2 (human), sequence (P06493 whole entry, looked up): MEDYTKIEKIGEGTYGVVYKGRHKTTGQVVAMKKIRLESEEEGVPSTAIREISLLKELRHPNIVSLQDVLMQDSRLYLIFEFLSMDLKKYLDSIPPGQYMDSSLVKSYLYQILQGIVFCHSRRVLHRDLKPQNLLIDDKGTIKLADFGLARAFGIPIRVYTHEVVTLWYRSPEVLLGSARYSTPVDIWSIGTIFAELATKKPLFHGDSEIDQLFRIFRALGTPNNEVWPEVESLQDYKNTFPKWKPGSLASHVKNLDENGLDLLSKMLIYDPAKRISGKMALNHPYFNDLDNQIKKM
# CDK1 CCNA2 (human), sequence (P20248 whole entry, looked up): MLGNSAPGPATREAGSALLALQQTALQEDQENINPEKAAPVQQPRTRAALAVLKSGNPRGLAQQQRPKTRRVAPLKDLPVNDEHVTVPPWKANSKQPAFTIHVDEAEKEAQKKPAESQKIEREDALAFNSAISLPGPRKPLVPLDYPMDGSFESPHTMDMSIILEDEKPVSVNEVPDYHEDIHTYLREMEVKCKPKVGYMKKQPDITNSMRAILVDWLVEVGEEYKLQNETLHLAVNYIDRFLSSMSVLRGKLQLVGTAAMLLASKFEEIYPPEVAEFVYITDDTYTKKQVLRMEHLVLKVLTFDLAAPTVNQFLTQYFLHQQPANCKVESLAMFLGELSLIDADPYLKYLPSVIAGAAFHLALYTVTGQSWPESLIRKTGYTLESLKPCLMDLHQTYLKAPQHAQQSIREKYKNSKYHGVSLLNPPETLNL
# MARK4 (human), sequence (Q96L34 whole entry, looked up): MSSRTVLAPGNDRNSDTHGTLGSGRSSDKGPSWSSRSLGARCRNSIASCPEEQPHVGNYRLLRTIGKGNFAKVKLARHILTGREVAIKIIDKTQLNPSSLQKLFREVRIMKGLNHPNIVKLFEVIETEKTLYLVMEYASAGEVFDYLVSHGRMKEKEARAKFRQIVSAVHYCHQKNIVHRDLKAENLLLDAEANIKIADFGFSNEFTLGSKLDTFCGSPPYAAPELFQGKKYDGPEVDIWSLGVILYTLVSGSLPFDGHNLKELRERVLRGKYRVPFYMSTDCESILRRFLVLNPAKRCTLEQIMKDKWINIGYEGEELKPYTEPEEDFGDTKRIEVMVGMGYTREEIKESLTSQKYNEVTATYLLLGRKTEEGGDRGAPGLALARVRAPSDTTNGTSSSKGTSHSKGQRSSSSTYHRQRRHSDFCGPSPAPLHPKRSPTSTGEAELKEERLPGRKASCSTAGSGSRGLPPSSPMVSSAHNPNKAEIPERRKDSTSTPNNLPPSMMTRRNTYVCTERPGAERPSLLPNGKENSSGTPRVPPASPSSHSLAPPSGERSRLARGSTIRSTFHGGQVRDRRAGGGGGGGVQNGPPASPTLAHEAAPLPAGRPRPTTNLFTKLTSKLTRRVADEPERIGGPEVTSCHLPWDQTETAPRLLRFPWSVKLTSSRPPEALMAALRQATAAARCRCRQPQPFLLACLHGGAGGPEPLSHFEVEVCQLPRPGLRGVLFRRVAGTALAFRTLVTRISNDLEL
# CHUK (human), sequence (O15111 whole entry, looked up): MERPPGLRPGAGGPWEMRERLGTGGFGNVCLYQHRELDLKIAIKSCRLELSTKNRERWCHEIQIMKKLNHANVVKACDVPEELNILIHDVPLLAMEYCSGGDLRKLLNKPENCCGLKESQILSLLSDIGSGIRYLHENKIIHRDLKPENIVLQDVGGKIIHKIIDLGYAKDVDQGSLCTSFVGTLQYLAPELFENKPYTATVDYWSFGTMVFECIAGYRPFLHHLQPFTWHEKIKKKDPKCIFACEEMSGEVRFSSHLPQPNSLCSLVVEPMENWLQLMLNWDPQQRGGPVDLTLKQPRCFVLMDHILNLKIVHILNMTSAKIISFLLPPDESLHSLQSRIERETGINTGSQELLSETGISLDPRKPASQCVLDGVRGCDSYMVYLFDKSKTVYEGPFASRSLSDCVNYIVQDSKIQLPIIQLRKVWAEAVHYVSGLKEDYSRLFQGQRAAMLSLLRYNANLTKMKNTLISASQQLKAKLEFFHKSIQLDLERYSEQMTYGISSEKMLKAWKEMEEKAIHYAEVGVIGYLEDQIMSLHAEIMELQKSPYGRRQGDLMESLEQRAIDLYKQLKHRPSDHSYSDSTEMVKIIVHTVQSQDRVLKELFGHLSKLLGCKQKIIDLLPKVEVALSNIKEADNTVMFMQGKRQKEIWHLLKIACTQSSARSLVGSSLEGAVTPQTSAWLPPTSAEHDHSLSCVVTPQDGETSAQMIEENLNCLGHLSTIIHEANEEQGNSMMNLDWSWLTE
# HIPK2 (human), sequence (Q9H2X6 whole entry, looked up): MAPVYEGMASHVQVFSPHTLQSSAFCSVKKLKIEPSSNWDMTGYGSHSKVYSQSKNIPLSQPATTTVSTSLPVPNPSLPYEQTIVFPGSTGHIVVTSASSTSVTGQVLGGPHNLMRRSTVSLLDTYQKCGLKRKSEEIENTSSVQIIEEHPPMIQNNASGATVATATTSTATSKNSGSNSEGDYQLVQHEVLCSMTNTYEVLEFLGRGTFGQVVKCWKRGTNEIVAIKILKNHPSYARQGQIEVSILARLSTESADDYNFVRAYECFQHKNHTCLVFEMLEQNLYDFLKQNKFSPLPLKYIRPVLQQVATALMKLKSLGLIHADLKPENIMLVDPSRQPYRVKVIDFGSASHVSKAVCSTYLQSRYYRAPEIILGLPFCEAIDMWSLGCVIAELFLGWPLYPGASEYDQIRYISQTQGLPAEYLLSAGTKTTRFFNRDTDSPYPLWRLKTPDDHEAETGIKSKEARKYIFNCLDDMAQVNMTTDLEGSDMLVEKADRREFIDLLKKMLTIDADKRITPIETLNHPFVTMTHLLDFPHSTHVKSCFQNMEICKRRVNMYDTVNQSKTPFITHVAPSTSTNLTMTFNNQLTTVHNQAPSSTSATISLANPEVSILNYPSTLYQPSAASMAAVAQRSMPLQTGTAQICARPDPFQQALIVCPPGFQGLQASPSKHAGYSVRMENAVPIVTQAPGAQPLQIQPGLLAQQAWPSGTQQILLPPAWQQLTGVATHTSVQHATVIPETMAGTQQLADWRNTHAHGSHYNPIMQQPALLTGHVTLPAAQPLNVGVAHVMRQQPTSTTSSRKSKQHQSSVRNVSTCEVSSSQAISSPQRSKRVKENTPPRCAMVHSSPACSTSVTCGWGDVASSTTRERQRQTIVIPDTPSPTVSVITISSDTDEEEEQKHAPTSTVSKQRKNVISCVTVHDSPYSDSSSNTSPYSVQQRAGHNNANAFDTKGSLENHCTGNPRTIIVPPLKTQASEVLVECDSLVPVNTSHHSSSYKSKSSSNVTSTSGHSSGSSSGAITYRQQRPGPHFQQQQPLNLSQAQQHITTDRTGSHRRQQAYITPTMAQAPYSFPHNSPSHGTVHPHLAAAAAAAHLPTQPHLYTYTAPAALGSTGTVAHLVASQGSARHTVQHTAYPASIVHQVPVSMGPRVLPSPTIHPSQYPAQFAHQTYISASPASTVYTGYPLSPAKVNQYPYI
structure (smiles),measurement,setting,value
CCC(=O)Nc1ccc2ncnc(Nc3cccc(Br)c3)c2c1,residual activity,[1],102%
same,residual activity,[2],94.3%
same,residual activity,[3],87.9%
same,residual activity,[4],99.3%
same,residual activity,[5],99.4%
same,residual activity,[6],91.6%
same,residual activity,[7],61.4%
same,residual activity,[8],99.4%
same,residual activity,[9],109%
same,residual activity,[10],92%
same,residual activity,[11],92.3%
same,residual activity,[12],89.5%
same,residual activity,[13],106%
same,residual activity,[14],93.4%
same,residual activity,[15],91.2%
same,residual activity,[16],97%
same,residual activity,[17],94.9%
same,residual activity,[18],94.9%
same,residual activity,[19],90.4%
same,residual activity,[20],91.2%
same,residual activity,[21],78.3%
same,residual activity,[22],87.1%
same,residual activity,[23],80.2%
same,residual activity,[24],83.9%
same,residual activity,[25],103%
same,residual activity,[26],97.2%
same,residual activity,[27],103%
same,residual activity,[28],94.7%
same,residual activity,[29],95.8%
same,residual activity,[30],96.3%
same,residual activity,[31],101%
same,residual activity,[32],101%
same,residual activity,[33],98.4%
same,residual activity,[34],99.5%
same,residual activity,[35],96.2%
same,residual activity,[36],94.3%
same,residual activity,[37],91.2%
same,residual activity,[38],101%
same,residual activity,[39],90.2%
same,residual activity,[40],99.3%
same,residual activity,[41],113%
CCN(CC)CCNC(=O)c1c(C)[nH]c(/C=C2\C(=O)Nc3ccc(F)cc32)c1C,residual activity,[2],54.5%
same,residual activity,[3],98.4%
same,residual activity,[4],92.4%
same,residual activity,[5],26.3%
same,residual activity,[7],92.2%
same,residual activity,[8],66.9%
same,residual activity,[9],154%
same,residual activity,[10],97.7%
same,residual activity,[11],58.2%
same,residual activity,[12],95.1%
same,residual activity,[13],84%
same,residual activity,[15],95.8%
same,residual activity,[16],41.3%
same,residual activity,[17],81%
same,residual activity,[18],45.6%
same,residual activity,[19],8.74%
same,residual activity,[20],104%
same,residual activity,[21],96.7%
same,residual activity,[22],93.2%
same,residual activity,[23],24.7%
same,residual activity,[24],39.8%
same,residual activity,[25],91%
same,residual activity,[26],92%
same,residual activity,[27],106%
same,residual activity,[28],94.1%
same,residual activity,[29],11.5%
same,residual activity,[30],118%
same,residual activity,[31],98.1%
same,residual activity,[32],107%
same,residual activity,[33],110%
same,residual activity,[34],99.7%
same,residual activity,[35],93.1%
same,residual activity,[37],88.6%
same,residual activity,[38],101%
same,residual activity,[39],52.6%
same,residual activity,[40],94.3%
same,residual activity,[41],97.2%
CNC(=O)c1cc(Oc2ccc(NC(=O)Nc3ccc(Cl)c(C(F)(F)F)c3)cc2)ccn1,residual activity,[1],103%
same,residual activity,[2],103%
same,residual activity,[3],100%
same,residual activity,[4],99.8%
same,residual activity,[5],95.2%
same,residual activity,[6],99.8%
same,residual activity,[7],94.4%
same,residual activity,[8],101%
same,residual activity,[9],3.41%
same,residual activity,[10],93.2%
same,residual activity,[11],92.7%
same,residual activity,[12],87.7%
same,residual activity,[13],95.5%
same,residual activity,[15],101%
same,residual activity,[17],88.3%
same,residual activity,[18],89.8%
same,residual activity,[19],53.3%
same,residual activity,[20],104%
same,residual activity,[21],94.8%
same,residual activity,[22],100%
same,residual activity,[23],98.1%
same,residual activity,[24],88.2%
same,residual activity,[25],105%
same,residual activity,[26],97.6%
same,residual activity,[27],105%
same,residual activity,[28],99.5%
same,residual activity,[29],76.1%
same,residual activity,[30],108%
same,residual activity,[31],101%
same,residual activity,[32],104%
same,residual activity,[34],102%
same,residual activity,[35],103%
same,residual activity,[36],101%
same,residual activity,[37],104%
same,residual activity,[38],94.1%
same,residual activity,[39],98.9%
same,residual activity,[40],99.2%
same,residual activity,[41],97.8%
O=S(=O)(c1cccc2cnccc12)N1CCCNCC1,residual activity,[1],115%
same,residual activity,[2],91.7%
same,residual activity,[3],98.6%
same,residual activity,[5],97.1%
same,residual activity,[6],85%
same,residual activity,[7],91.9%
same,residual activity,[8],79%
same,residual activity,[9],92.2%
same,residual activity,[11],89.1%
same,residual activity,[12],79.9%
same,residual activity,[13],105%
same,residual activity,[14],107%
same,residual activity,[15],102%
same,residual activity,[19],96.7%
same,residual activity,[20],88.3%
same,residual activity,[21],87%
same,residual activity,[22],101%
same,residual activity,[23],103%
same,residual activity,[24],88.3%
same,residual activity,[26],92.7%
same,residual activity,[27],114%
same,residual activity,[28],90.7%
same,residual activity,[29],89.6%
same,residual activity,[30],94.6%
same,residual activity,[32],87%
same,residual activity,[33],98.3%
same,residual activity,[34],60.2%
same,residual activity,[35],91.9%
same,residual activity,[36],84.3%
same,residual activity,[37],98.4%
same,residual activity,[38],98.4%
same,residual activity,[39],81.6%
same,residual activity,[40],98.1%
same,residual activity,[41],108%
CC#CC(=O)Nc1cc2c(Nc3ccc(F)c(Cl)c3)ncnc2cn1,residual activity,[2],93.3%
same,residual activity,[3],96.5%
same,residual activity,[4],92.1%
same,residual activity,[5],90.4%
same,residual activity,[6],111%
same,residual activity,[7],96.5%
same,residual activity,[8],94.7%
same,residual activity,[9],108%
same,residual activity,[10],104%
same,residual activity,[11],101%
same,residual activity,[12],88.3%
same,residual activity,[13],99.8%
same,residual activity,[14],83.4%
same,residual activity,[15],93%
same,residual activity,[16],101%
same,residual activity,[17],102%
same,residual activity,[18],98.9%
same,residual activity,[19],98.5%
same,residual activity,[20],98.9%
same,residual activity,[21],91.8%
same,residual activity,[22],104%
same,residual activity,[23],101%
same,residual activity,[24],84.5%
same,residual activity,[25],96.3%
same,residual activity,[26],104%
same,residual activity,[27],86.6%
same,residual activity,[28],85.8%
same,residual activity,[29],98.5%
same,residual activity,[30],94.5%
same,residual activity,[31],105%
same,residual activity,[32],96.9%
same,residual activity,[33],85.6%
same,residual activity,[34],96.2%
same,residual activity,[35],98.3%
same,residual activity,[36],95.4%
same,residual activity,[37],99.7%
same,residual activity,[38],98.7%
same,residual activity,[39],106%
same,residual activity,[40],95.1%
same,residual activity,[41],90.4%
